Where two headings read alike, the source gives them in different places.
Assays:
[1] = Solubility of the free base of the compound of Formula I in solvents and mixed solvent systems; type: physicochemical; conditions: for solubility: thermodynamic from solid
Experimental: The solubility was also determined in mixed solvent systems such as DCM/EtOH, DMSO/EtOH, DMSO/water, THF/EtOH, and THF/water.
The solubility studies were conducted as follows. […] The samples were then heated to 60° C. Should the solids dissolve on heating, more freebase was added in 3 to 5 mg portions.

[2] = Screen of conditions for sulfuric and phosphoric acid salts of Formula I (freebase solubility observations); type: physicochemical; conditions: 25° C.
Text: The use of sulfuric acid in 4:1 DCM/EtOH provided a filterable solid after stirring overnight.

COc1ccc(CN2CCN(c3ccc(-c4cc(-c5cnn(C)c5)cn5ncc(C#N)c45)cn3)CC2)cn1 [freebase of the compound of Formula I, 4-(6-(4-((6-methoxypyridin-3-yl)methyl)piperazin-1-yl)pyridin-3-yl)-6-(1-methyl-1H-pyrazol-4-yl)pyrazolo[1,5-a]pyridine-3-carbonitrile]
solubility ([1]; 0.1M HCl, 25 °C, simulated gastric fluid, read-out: Solubility at 25° C.): 1500 µg/mL | solubility ([1]; 10% THF in H2O, 25 °C, aqueous with cosolvent or surfactant or cyclodextrin, title: THF/H2O at room temperature, head: % THF in EtOH = 10, read-out: Solubility): 150 µg/mL | solubility ([1]; 20% THF in H2O, 25 °C, aqueous with cosolvent or surfactant or cyclodextrin, title: THF/H2O at room temperature, head: % THF in EtOH = 20, read-out: Solubility): 130 µg/mL | solubility ([1]; 25 °C, aqueous with cosolvent or surfactant or cyclodextrin, 20% DMSO in H2O, room temperature, read-out: Solubility): 80 µg/mL | solubility ([1]; 25 °C, aqueous with cosolvent or surfactant or cyclodextrin, 30% DMSO in H2O, room temperature, read-out: Solubility): 90 µg/mL | solubility ([1]; 25 °C, aqueous with cosolvent or surfactant or cyclodextrin, 40% DMSO in H2O, room temperature, read-out: Solubility): 100 µg/mL | solubility ([1]; 25 °C, aqueous with cosolvent or surfactant or cyclodextrin, 50% DMSO in H2O, room temperature, read-out: Solubility): 90 µg/mL | solubility ([1]; 25 °C, aqueous with cosolvent or surfactant or cyclodextrin, 60% DMSO in H2O, room temperature, read-out: Solubility): 100 µg/mL | solubility ([1]; 25 °C, aqueous with cosolvent or surfactant or cyclodextrin, 70% DMSO in H2O, room temperature, read-out: Solubility): 150 µg/mL | solubility ([1]; 25 °C, aqueous with cosolvent or surfactant or cyclodextrin, 80% DMSO in H2O, room temperature, read-out: Solubility): 350 µg/mL | solubility ([1]; 25 °C, aqueous with cosolvent or surfactant or cyclodextrin, 90% DMSO in H2O, room temperature, read-out: Solubility): 1520 µg/mL | solubility ([1]; 25 °C, organic solvent or mixture, 20% DCM in EtOH, room temperature, read-out: Solubility): 260 µg/mL | solubility ([1]; 25 °C, organic solvent or mixture, 20% DMSO in EtOH, room temperature, read-out: Solubility): 180 µg/mL | solubility ([1]; 25 °C, organic solvent or mixture, 20% THF in EtOH, room temperature, read-out: Solubility): 340 µg/mL | solubility ([1]; 25 °C, organic solvent or mixture, 30% DCM in EtOH, room temperature, read-out: Solubility): 870 µg/mL | solubility ([1]; 25 °C, organic solvent or mixture, 30% DMSO in EtOH, room temperature, read-out: Solubility): 390 µg/mL | solubility ([1]; 25 °C, organic solvent or mixture, 30% THF in EtOH, room temperature, read-out: Solubility): 550 µg/mL | solubility ([1]; 25 °C, organic solvent or mixture, 40% DCM in EtOH, room temperature, read-out: Solubility): 2530 µg/mL | solubility ([1]; 25 °C, organic solvent or mixture, 40% DMSO in EtOH, room temperature, read-out: Solubility): 610 µg/mL | solubility ([1]; 25 °C, organic solvent or mixture, 40% THF in EtOH, room temperature, read-out: Solubility): 820 µg/mL | solubility ([1]; 25 °C, organic solvent or mixture, 50% DCM in EtOH, room temperature, read-out: Solubility): 7420 µg/mL | solubility ([1]; 25 °C, organic solvent or mixture, 50% DMSO in EtOH, room temperature, read-out: Solubility): 1140 µg/mL | solubility ([1]; 25 °C, organic solvent or mixture, 50% THF in EtOH, room temperature, read-out: Solubility): 1380 µg/mL | solubility ([1]; 25 °C, organic solvent or mixture, 60% DCM in EtOH, room temperature, read-out: Solubility): 16600 µg/mL | solubility ([1]; 25 °C, organic solvent or mixture, 60% DMSO in EtOH, room temperature, read-out: Solubility): 1800 µg/mL | solubility ([1]; 25 °C, organic solvent or mixture, 60% THF in EtOH, room temperature, read-out: Solubility): 1970 µg/mL | solubility ([1]; 25 °C, organic solvent or mixture, 70% DCM in EtOH, room temperature, read-out: Solubility): 22700 µg/mL | solubility ([1]; 25 °C, organic solvent or mixture, 70% DMSO in EtOH, room temperature, read-out: Solubility): 2570 µg/mL | solubility ([1]; 25 °C, organic solvent or mixture, 70% THF in EtOH, room temperature, read-out: Solubility): 2510 µg/mL | solubility ([1]; 25 °C, organic solvent or mixture, 80% DCM in EtOH, room temperature, read-out: Solubility): 29000 µg/mL | solubility ([1]; 25 °C, organic solvent or mixture, 80% DMSO in EtOH, room temperature, read-out: Solubility): 4280 µg/mL | solubility ([1]; 25 °C, organic solvent or mixture, 80% THF in EtOH, room temperature, read-out: Solubility): 3090 µg/mL | solubility ([1]; 25 °C, organic solvent or mixture, 90% DCM in EtOH, room temperature, read-out: Solubility): 34200 µg/mL | solubility ([1]; 25 °C, organic solvent or mixture, 90% DMSO in EtOH, room temperature, read-out: Solubility): 4440 µg/mL | solubility ([1]; 25 °C, organic solvent or mixture, 90% THF in EtOH, room temperature, read-out: Solubility): 3180 µg/mL | solubility ([1]; 25 °C, organic solvent or mixture, 100% DMSO in EtOH, room temperature, read-out: Solubility): 6960 µg/mL | solubility ([1]; 30% THF in H2O, 25 °C, aqueous with cosolvent or surfactant or cyclodextrin, title: THF/H2O at room temperature, head: % THF in EtOH = 30, read-out: Solubility): 350 µg/mL | solubility ([1]; 40% THF in H2O, 25 °C, aqueous with cosolvent or surfactant or cyclodextrin, title: THF/H2O at room temperature, head: % THF in EtOH = 40, read-out: Solubility): 1360 µg/mL | solubility ([1]; 50% THF in H2O, 25 °C, aqueous with cosolvent or surfactant or cyclodextrin, title: THF/H2O at room temperature, head: % THF in EtOH = 50, read-out: Solubility): 2500 µg/mL | solubility ([1]; 60% THF in H2O, 25 °C, aqueous with cosolvent or surfactant or cyclodextrin, title: THF/H2O at room temperature, head: % THF in EtOH = 60, read-out: Solubility): 3760 µg/mL | solubility ([1]; 70% THF in H2O, 25 °C, aqueous with cosolvent or surfactant or cyclodextrin, title: THF/H2O at room temperature, head: % THF in EtOH = 70, read-out: Solubility): 6170 µg/mL | solubility ([1]; 80% THF in H2O, 25 °C, aqueous with cosolvent or surfactant or cyclodextrin, title: THF/H2O at room temperature, head: % THF in EtOH = 80, read-out: Solubility): 6650 µg/mL | solubility ([1]; 90% THF in H2O, 25 °C, aqueous with cosolvent or surfactant or cyclodextrin, title: THF/H2O at room temperature, head: % THF in EtOH = 90, read-out: Solubility): 6560 µg/mL | solubility ([1]; 100% DMSO (DMSO/H2O series), 25 °C, organic solvent or mixture, 100% DMSO in H2O, room temperature, read-out: Solubility): 6960 µg/mL | solubility ([1]; 100% THF (THF/EtOH series), 25 °C, organic solvent or mixture, 100% THF in EtOH, room temperature, read-out: Solubility): 2590 µg/mL | solubility ([1]; 100% THF (THF/H2O series), 25 °C, organic solvent or mixture, title: THF/H2O at room temperature, head: % THF in EtOH = 100, read-out: Solubility): 2590 µg/mL | Solids dissolve at 60° C.? ([1]; ACN): No | solubility ([1]; ACN, 25 °C, organic solvent or mixture, read-out: Solubility at 25° C.): 330 µg/mL | solubility ([1]; DCE, 25 °C, organic solvent or mixture, read-out: Solubility at 25° C.): 4600 µg/mL | Solids dissolve at 60° C.? ([1]; EtOAc): No | solubility ([1]; EtOAc, 25 °C, organic solvent or mixture, read-out: Solubility at 25° C.): 360 µg/mL | Solids dissolve at 60° C.? ([1]; EtOH): No | solubility ([1]; EtOH, 25 °C, organic solvent or mixture, read-out: Solubility at 25° C.): 40 µg/mL | Solids dissolve at 60° C.? ([1]; IPA): No | Solids dissolve at 60° C.? ([1]; MEK): No | solubility ([1]; MEK, 25 °C, organic solvent or mixture, read-out: Solubility at 25° C.): 690 µg/mL | Solids dissolve at 60° C.? ([1]; MeOH): No | solubility ([1]; MeOH, 25 °C, organic solvent or mixture, read-out: Solubility at 25° C.): 70 µg/mL | Solids dissolve at 60° C.? ([1]; THF): Yes | freebase dissolved in THF at 60° C. ([1]; THF (1 mL), 60° C., solution turned milky at 13 mg): 10 to 13 mg | Solids dissolve at 60° C.? ([1]; acetone): No | solubility ([1]; acetone, 25 °C, organic solvent or mixture, read-out: Solubility at 25° C.): 440 µg/mL | solubility ([1]; aqueous with cosolvent or surfactant or cyclodextrin, 10% DMSO in H2O, room temperature, read-out: Solubility): 90 µg/mL | Solids dissolve at 60° C.? ([1]; iPAc): No | solubility ([1]; iPAc, 25 °C, organic solvent or mixture, read-out: Solubility at 25° C.): 250 µg/mL | solubility ([1]; organic solvent or mixture, 0% DCM in EtOH, room temperature, read-out: Solubility): 50 µg/mL | solubility ([1]; organic solvent or mixture, 0% DMSO in EtOH, room temperature, read-out: Solubility): 50 µg/mL | solubility ([1]; organic solvent or mixture, 10% DCM in EtOH, room temperature, read-out: Solubility): 60 µg/mL | solubility ([1]; organic solvent or mixture, 10% DMSO in EtOH, room temperature, read-out: Solubility): 90 µg/mL | solubility ([1]; organic solvent or mixture, 10% THF in EtOH, room temperature, read-out: Solubility): 290 µg/mL | solubility ([1]; organic solvent or mixture, 100% DCM in EtOH, room temperature, read-out: Solubility): 17300 µg/mL | solubility ([1]; organic solvent or mixture, DMA, 60° C., read-out: Solubility at 60° C.): > 40000 µg/mL | solubility ([1]; organic solvent or mixture, THF, 60° C., read-out: Solubility at 60° C.): 10200 to 13000 µg/mL | Solids dissolve at 60° C.? ([1]; toluene): No | solubility ([1]; toluene, 25 °C, organic solvent or mixture, read-out: Solubility at 25° C.): 350 µg/mL | solubility ([1]; water, 25 °C, water, read-out: Solubility at 25° C.): 70 µg/mL | Solubility (in words) ([2]; 4:1 DCM/EtOH (100 vol)): dissolve | Solubility (in words) ([2]; THF, EtOH, and 1:1 DCM/EtOH (100 vol)): limited solubility

— patent US10584124B2, “Crystalline forms” (Array BioPharma Inc., priority 2017, dated 2020)
